Assay results from patent publication US20230114728A1 (Venatorx Pharmaceuticals, Inc., priority 2019, published 2023).
In brackets after ≈: the same amount, converted by molar mass.

Experiments:
Type in all cases: cell-based
A. baumannii ATCC 19606 = assay: Broth microdilution MIC in CAMHB; settings: Acinetobacter baumannii, ATCC19606; MHB; read-out: Minimum Inhibitory Concentration, A. baumannii ATCC 19606
Summary of the method: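 CLSI broth microdilution in CAMHB: 2-fold compound dilutions inoculated at 2-8×10^5 CFU/mL from 3-5 h log-phase cultures. Incubated at 37 °C for 16-20 h (Enterobacteriaceae, Pseudomonas); MIC read visually as lowest concentration without growth. Strains include hyper-permeable and efflux-deficient mutants.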

E. coli 901C = assay: Broth microdilution MIC in CAMHB; settings: Escherichia coli; E. coli 901C (hyper-permeable); MHB; read-out: Minimum Inhibitory Concentration, E. coli 901C
Summary of the method: (§1)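 Lowest compound concentration with no visible growth after 16-20 h at 37 °C defines MIC. Plates of 2-fold serial dilutions in cation-adjusted Mueller Hinton broth received 2-8×10^5 CFU/mL of exponentially grown cells, per CLSI methods; panel spans reference, hyper-permeable and efflux-pump-deleted strains.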

E. coli AG100A = assay: Broth microdilution MIC in CAMHB; settings: Escherichia coli, read-out: Minimum Inhibitory Concentration, E. coli AG100A
Summary of the method: as §1

E. coli AG100 = assay: Broth microdilution MIC in CAMHB; settings: Escherichia coli; E. coli AG100 (wild-type parent); MHB; read-out: Minimum Inhibitory Concentration, E. coli AG100
Summary of the method: as §1

E. coli ATCC 25922 = assay: Broth microdilution MIC in CAMHB; settings: Escherichia coli, ATCC25922; E. coli ATCC 25922; MHB; read-out: Minimum Inhibitory Concentration, E. coli 25922
Summary of the method: as §1

E. coli D22 = assay: Broth microdilution MIC in CAMHB; settings: Escherichia coli; E. coli D22 (hyper-permeable); MHB; read-out: Minimum Inhibitory Concentration, E. coli D22
Summary of the method: as §1

[1] = tested on: K. pneumoniae 848844 producing SHV-11 and KPC-2; assay: Broth microdilution MIC in CAMHB; settings: Klebsiella pneumoniae, read-out: Minimum Inhibitory Concentration, K. pneumoniae 848844
Summary of the method: as §1

[2] = tested on: K. pneumoniae SI-117 producing VIM-1; assay: Broth microdilution MIC in CAMHB; settings: Klebsiella pneumoniae, read-out: Minimum Inhibitory Concentration, K. pneumoniae SI-117
Summary of the method: as §1

[3] = tested on: K. pneumoniae UMM producing SHV-5 and KPC-2; assay: Broth microdilution MIC in CAMHB; settings: Klebsiella pneumoniae, read-out: Minimum Inhibitory Concentration, K. pneumoniae UMM
Summary of the method: as §1

[4] = tested on: P. aeruginosa (ΔmexAB-oprM); assay: Broth microdilution MIC in CAMHB; settings: Pseudomonas aeruginosa, read-out: Minimum Inhibitory Concentration, P. aeruginosa ΔmexAB-OprM
Summary of the method: as §1

P. aeruginosa ATCC 27853 = assay: Broth microdilution MIC in CAMHB; settings: Pseudomonas aeruginosa, ATCC27853; MHB; read-out: Minimum Inhibitory Concentration, P. aeruginosa ATCC 27853
Summary of the method: as §1

P. aeruginosa ATCC 35151 = assay: Broth microdilution MIC in CAMHB; settings: Pseudomonas aeruginosa, ATCC35151; MHB; hyper-permeable strain; read-out: Minimum Inhibitory Concentration, P. aeruginosa ATCC 35151
Summary of the method: as §1

N. gonorrhoeae H041 = assay: Liquid broth MIC in Fastidious broth; settings: Neisseria gonorrhoeae, H041, read-out: Minimum Inhibitory Concentration, N. gonorrhoeae H041
Summary of the method: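 Broth microdilution in Fastidious broth with 2-fold compound series; inoculum from 24 h chocolate agar colonies, 5×10^5 CFU/mL start. Incubated ~24 hours at 36° C, 5% CO2. MIC read visually as lowest concentration giving <10% growth versus full-growth wells; strains carry mosaic PBP2.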

| SMILES | MIC (A. baumannii ATCC 19606) | MIC (E. coli 901C) | MIC (E. coli AG100A) | MIC (E. coli AG100) | MIC (E. coli ATCC 25922) | MIC (E. coli D22) | MIC [1] | MIC [2] | MIC [3] | MIC [4] | MIC (P. aeruginosa ATCC 27853) | MIC (P. aeruginosa ATCC 35151) | MIC (N. gonorrhoeae H041) |
| --- | --- | --- | --- | --- | --- | --- | --- | --- | --- | --- | --- | --- | --- |
| CS(=O)(=O)N1CCN(C(=O)N[C@@H](C(=O)N[C@H]2Cc3cccc(C(=O)O)c3OB2O)c2c(F)cc(O)cc2F)C1=O (single isomer, unassigned) [Example 135] | > 128 µg/mL | < 0.25 µg/mL | 0.5 to 1 µg/mL (≈ 0.859 to 1.72 µM) | 32 to 64 µg/mL (≈ 55 to 110 µM) | 8 to 16 µg/mL (≈ 13.7 to 27.5 µM) | 2 to 4 µg/mL (≈ 3.43 to 6.87 µM) | 32 to 64 µg/mL (≈ 55 to 110 µM) | 32 to 64 µg/mL (≈ 55 to 110 µM) | 32 to 64 µg/mL (≈ 55 to 110 µM) | 32 to 64 µg/mL (≈ 55 to 110 µM) | > 128 µg/mL | 2 to 4 µg/mL (≈ 3.43 to 6.87 µM) | > 64 µg/mL |
| CCN1CCN(C(=O)NC(C(=O)N[C@H]2Cc3cccc(C(=O)O)c3OB2O)c2c(F)cc(NS(N)(=O)=O)cc2F)C(=O)C1=O (stereo partly drawn) [Example 176, (3R)-3-(2-(2,6-difluoro-4-(sulfamoylamino)phenyl)-2-(4-ethyl-2,3-dioxopiperazine-1-carboxamido)acetamido)-2-hydroxy-3,4-dihydro-2H-benzo[e][1,2]oxaborinine-8-carboxylic acid] | > 128 µg/mL | < 0.25 µg/mL | 2 to 4 µg/mL (≈ 3.13 to 6.27 µM) | 32 to 64 µg/mL (≈ 50.1 to 100 µM) | 32 to 64 µg/mL (≈ 50.1 to 100 µM) | 2 to 4 µg/mL (≈ 3.13 to 6.27 µM) | > 128 µg/mL | > 128 µg/mL | 32 to 64 µg/mL (≈ 50.1 to 100 µM) | 32 to 64 µg/mL (≈ 50.1 to 100 µM) | > 128 µg/mL | 2 to 4 µg/mL (≈ 3.13 to 6.27 µM) | > 64 µg/mL |
| NCCN1CCN(C(=O)N[C@H](C(=O)N[C@H]2Cc3cccc(C(=O)O)c3OB2O)c2c(F)cc(O)cc2F)C(=O)C1=O (single isomer, unassigned) [Example 110] | > 128 µg/mL | 8 to 16 µg/mL (≈ 13.9 to 27.8 µM) | 8 to 16 µg/mL (≈ 13.9 to 27.8 µM) | > 128 µg/mL | > 128 µg/mL | 32 to 64 µg/mL (≈ 55.6 to 111 µM) | > 128 µg/mL | > 128 µg/mL | > 128 µg/mL | 32 to 64 µg/mL (≈ 55.6 to 111 µM) | > 128 µg/mL | 8 to 16 µg/mL (≈ 13.9 to 27.8 µM) | > 64 µg/mL |
| NCCN1CCN(C(=O)N[C@H](C(=O)N[C@H]2Cc3cccc(C(=O)O)c3OB2O)c2ccc(O)c(F)c2F)C(=O)C1=O (single isomer, unassigned) [Example 169] | > 128 µg/mL | 2 to 4 µg/mL (≈ 3.48 to 6.95 µM) | 32 to 64 µg/mL (≈ 55.6 to 111 µM) | 32 to 64 µg/mL (≈ 55.6 to 111 µM) | 8 to 16 µg/mL (≈ 13.9 to 27.8 µM) | 32 to 64 µg/mL (≈ 55.6 to 111 µM) | > 128 µg/mL | > 128 µg/mL | > 128 µg/mL | 32 to 64 µg/mL (≈ 55.6 to 111 µM) | > 128 µg/mL | 2 to 4 µg/mL (≈ 3.48 to 6.95 µM) | > 64 µg/mL |
| CCN1CCN(C(=O)NC(C(=O)N[C@H]2Cc3cccc(C(=O)O)c3OB2O)c2c(F)cc(N)cc2F)C(=O)C1=O (stereo partly drawn) [Example 181, (3R)-3-(2-(4-amino-2,6-difluorophenyl)-2-(4-ethyl-2,3-dioxopiperazine-1-carboxamido)acetamido)-2-hydroxy-3,4-dihydro-2H-benzo[e][1,2]oxaborinine-8-carboxylic acid] | > 128 µg/mL | < 0.25 µg/mL | 2 to 4 µg/mL (≈ 3.58 to 7.15 µM) | 32 to 64 µg/mL (≈ 57.2 to 114 µM) | 32 to 64 µg/mL (≈ 57.2 to 114 µM) | 2 to 4 µg/mL (≈ 3.58 to 7.15 µM) | > 128 µg/mL | 32 to 64 µg/mL (≈ 57.2 to 114 µM) | 32 to 64 µg/mL (≈ 57.2 to 114 µM) | 8 to 16 µg/mL (≈ 14.3 to 28.6 µM) | > 128 µg/mL | 0.5 to 1 µg/mL (≈ 0.894 to 1.79 µM) | > 64 µg/mL |
| NCCCN1CCN(C(=O)N[C@H](C(=O)N[C@H]2Cc3cccc(C(=O)O)c3OB2O)c2cccc(NS(N)(=O)=O)c2)C(=O)C1=O [Example 118, (R)-3-((S)-2-(4-(3-aminopropyl)-2,3-dioxopiperazine-1-carboxamido)-2-(3-(sulfamoylamino)phenyl)acetamido)-2-hydroxy-3,4-dihydro-2H-benzo[e][1,2]oxaborinine-8-carboxylic acid] | > 128 µg/mL | 2 to 4 µg/mL (≈ 3.17 to 6.33 µM) | 2 to 4 µg/mL (≈ 3.17 to 6.33 µM) | 32 to 64 µg/mL (≈ 50.7 to 101 µM) | 32 to 64 µg/mL (≈ 50.7 to 101 µM) | 8 to 16 µg/mL (≈ 12.7 to 25.3 µM) | > 128 µg/mL | > 128 µg/mL | 32 to 64 µg/mL (≈ 50.7 to 101 µM) | 8 to 16 µg/mL (≈ 12.7 to 25.3 µM) | > 128 µg/mL | 0.5 to 1 µg/mL (≈ 0.792 to 1.58 µM) | > 64 µg/mL |
